According to ChEMBL document CHEMBL1152181, “Rational design of novel glycomimetics: inhibitors of concanavalin A” (Bioorg Med Chem Lett, 2008):

biological target: Concanavalin-A (Canavalia ensiformis, UniProt P02866); assay: Inhibition of Canavalia ensiformis concanavalin A binding to yeast mannan by ELLA
Sequence (P02866 whole entry): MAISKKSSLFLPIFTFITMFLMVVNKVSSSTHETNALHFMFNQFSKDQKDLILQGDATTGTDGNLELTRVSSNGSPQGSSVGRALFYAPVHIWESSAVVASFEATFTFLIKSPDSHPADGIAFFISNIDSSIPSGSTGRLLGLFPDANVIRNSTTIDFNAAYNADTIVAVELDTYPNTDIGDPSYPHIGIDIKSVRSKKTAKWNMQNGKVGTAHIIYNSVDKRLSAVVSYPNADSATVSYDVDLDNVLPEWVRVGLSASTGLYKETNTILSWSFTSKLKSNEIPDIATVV

Point of comparison: O=C(O)C1CCCCC1c1c2ccc(=O)c(O)c-2oc2c(O)c(O)ccc12 (configuration not stated), IC50 29 µM. Against it:
- CO[C@H]1O[C@H](CO)[C@@H](O)[C@H](O)[C@@H]1O — 12-fold higher, 350 µM
- NS(=O)(=O)c1ccc(/N=N/c2nc3nc(O)nc(O)c3[nH]2)cc1 — 21-fold higher, 615 µM
- Oc1cc(O)c2c(c1)OC(c1ccc(O)c(O)c1)C(O)C2c1c(O)cc(O)c2c1CC(c1ccc(O)c(O)c1)C(O)C2 (configuration not stated) — 17-fold higher, 479 µM
- NS(=O)(=O)c1ccc(/N=N/c2cccnc2O)cc1 — 8.1-fold higher, 234 µM
- NNS(=O)(=O)c1cc(C(=O)O)cc(C(=O)O)c1 — 1.5-fold lower, 19 µM

biological target: Concanavalin-A (Canavalia ensiformis) (UniProt P02866); assay: Inhibition of Canavalia ensiformis concanavalin A binding to yeast mannan at 11 mM by ELLA
Sequence (P02866 whole entry): as above

Compound NS(=O)(=O)c1ccc(/N=N/c2cnc(O)c(O)c2)cc1 has an inhibition of 49%.
